Laboratory results as given in patent publication US11040036B2, “Pyruvate kinase activators for use in treating blood disorders” (Agios Pharmaceuticals, Inc., priority 2017, dated 2021).

How the values were obtained:
[1] = target: T1, wild type PKR (Homo sapiens, UniProt P30613); assay: Cell based ATP assay in purified red blood cells; set-up: endogenous in cells; host or cells: purified red blood cells from blood of healthy volunteers; settings: RBCs, overnight at 37° C., ATP levels by Cell-Titer-Glo
Experimental: Example 16. Red Blood Cell (RBC) Purification
Fresh blood drawn from healthy volunteers into K2EDTA tubes was collected. Whole blood was pelleted by spinning at 500 g for 10 minutes. Cut transfusion bag port off of Purecell leukocyte reduction neofilter (Fisher NCO267633) one (1) inch above filter. Attach a 10 ml syringe barrel to the remaining cut tubing attached to neofilter. The plasma layer was removed from the pellet of the whole blood and the pellet was resuspended in 2× volume of phosphate buffered saline (PBS). Transfer 9 ml re-suspended blood cell pellet to prepared 10 ml syringe that is attached to the neofilter. Allow whole blood to gravity flow through filter until all fluid runs through upper tubing into filter disc. Add plunger to the syringe, remove syringe from clamp and invert the filter, then plunge air through the syringe filter system. Using a new 5 ml syringe, remove filtered RBCs from the bag by the syringe port and transfer purified RBCs to a 5 ml snap cap tube that has been incubated on ice. Spin 5 ml snap cap tube at 500 g for 10 minutes at 15 C, aspirate supernatant and resuspend in AGAM (1×PBS, 1% glucose, 170 mg/L adenine, 5.25 g/L mannitol) at a density of 4×10^9 cells/mL.
Example 17. Cell Based ATP Assay
For cell based ATP assays, the compound as described herein was prepared in 100% DMSO as a 10 mM stock. Serial dilutions (1:4) were performed in 96-well V-bottom storage plate and then added 1:100 to 96-well V-bottom plates containing AGAM. RBCs were diluted in AGAM media to a density of 1×10^7 cells/mL before added 90 μL/well to black clear bottom assay plates (final compound concentration at 0.1% DMSO concentration). Assay plates were sealed using aluminum foil seals and incubated overnight at 37° C. in a humidified chamber. ATP levels were read out using Cell-Titer-Glo (Promega).

[2] = target: T1, wild type PKR; assay: PKR mutant assay (AC50), wild type PKR; format: biochemical; settings: wild type PKR enzyme; read-out: PKR WT AC50
Experimental: (§1) Example 11. PKR Mutant Assay
(§2) PKR or PKR mutant enzyme solution was diluted into a reaction mix, which contains 1× buffer (100 mM KCl, 50 mM Tris pH 7.5, 5 mM MgCl2) as well as PEP (cont depends on enzyme), 180 μM NADH, 0.5 units LDH, 1 mM DTT, 0.03% BSA; final assay concentrations after 1.11 fold dilution are indicated.
(§3) 2 μL of test compound was added into wells first, and then 180 μL reaction mix was added.
(§4) Reactions mixture with test compound was assembled except for ADP, and plates were stored for 60 minutes at room temperature.
(§5) 20 uL ADP was added to start reaction at room temperature and reaction progress was measured as changes in absorbance at 340 nm wavelength at room temperature.
(§6) Test Compound Preparation:
(§7) Test compound stock was made at 100× concentration in 100% DMSO (10 mM)
(§8) 1 to 3 dilutions were made for 11 points (i.e. 50 μl of first concentration added to 100 μl 100% DMSO to yield 3.33 mM, 50 μl of this added to 100 μl DMSO to yield 1.11 mM, and so forth) • 1 to 100 dilution into assay (2 μl in 200 μl) yielded starting concentration of 100 μM, decreasing 3 fold for 11 points.
(§9) Assay Buffer: 100 mM KCl, 50 mM Tris 7.5, 5 mM MgCl2, 1 ruM DTT, 0.03% BSA
(§10) Reaction Mixture: PKR mutant enzyme: 40-400 ng/well; ADP: 0.2-1.65 mM; PEP: 0.1-0.5 mM; NADH:180 μM; LDH: 0.5 units (Sigma #59023); DTT: 1 mM; BSA: 0.03%.

[3] = target: PKR K410E (Homo sapiens, UniProt P30613, K410E); assay: PKR mutant assay (AC50), PKR K410E; format: biochemical; settings: PKR K410E mutant enzyme
Experimental: as §1, §2, §3, §4, §5, §6, §7, §8, §9, §10

[4] = target: PKR R510Q (Homo sapiens, UniProt P30613, R510Q); assay: PKR mutant assay (AC50), PKR R510Q; format: biochemical; settings: PKR R510Q mutant enzyme; read-out: PK R510Q AC50
Experimental: as §1, §2, §3, §4, §5, §6, §7, §8, §9, §10

T1 sequence (P30613 whole entry): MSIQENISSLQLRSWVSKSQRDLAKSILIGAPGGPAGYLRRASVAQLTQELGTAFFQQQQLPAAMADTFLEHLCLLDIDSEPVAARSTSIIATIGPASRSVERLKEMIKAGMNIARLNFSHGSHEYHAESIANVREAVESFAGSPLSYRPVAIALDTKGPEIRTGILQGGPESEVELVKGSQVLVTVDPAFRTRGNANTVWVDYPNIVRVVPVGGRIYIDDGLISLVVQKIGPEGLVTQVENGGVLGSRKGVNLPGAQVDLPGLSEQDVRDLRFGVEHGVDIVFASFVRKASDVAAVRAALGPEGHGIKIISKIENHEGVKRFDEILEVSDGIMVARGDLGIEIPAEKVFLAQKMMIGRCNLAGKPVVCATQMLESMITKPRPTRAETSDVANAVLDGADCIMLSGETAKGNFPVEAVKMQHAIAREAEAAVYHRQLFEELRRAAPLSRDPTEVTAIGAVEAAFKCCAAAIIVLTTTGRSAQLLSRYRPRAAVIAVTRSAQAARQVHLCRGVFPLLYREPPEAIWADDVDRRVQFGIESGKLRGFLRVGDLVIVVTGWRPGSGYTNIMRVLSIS
Chain of PKR R510Q (P30613 whole entry R510Q): as the sequence (P30613 whole entry) above, with R510Q counted along it
Chain of PKR K410E (P30613 whole entry K410E): as the sequence (P30613 whole entry) above, with K410E counted along it

| SMILES | AC50 [1] | AC50 [2] | AC50 [3] | AC50 [4] |
| --- | --- | --- | --- | --- |
| CC(=O)Nc1ccc(F)c(Cn2ncc3c4sc(Cc5cc[nH]n5)nc4n(C)c3c2=O)n1 | > 1000 nM | > 800 nM | > 800 nM | < 300 nM |
| Cn1c2nc(Cc3cc[nH]n3)sc2c2cnn(Cc3coc(C(N)=O)n3)c(=O)c21 | ≤ 1000 nM | > 800 nM | > 800 nM | > 800 nM |
| Cn1c2nc(Cc3n[nH]cc3F)sc2c2cnn(Cc3n[nH]cc3F)c(=O)c21 | ≤ 1000 nM | < 300 nM | < 300 nM | < 300 nM |
| Cn1c2nc(Cn3cccn3)sc2c2cnn(Cc3cc[nH]n3)c(=O)c21 | ≤ 1000 nM | < 300 nM | < 300 nM | < 300 nM |
| Cn1c2nc(Cc3ccccn3)sc2c2cnn(Cc3cccnc3)c(=O)c21 | ≤ 1000 nM | 301 to 800 nM | 301 to 800 nM | < 300 nM |
| Cn1c2nc(Cc3csc(CO)n3)sc2c2cnn(Cc3cn[nH]n3)c(=O)c21 | ≤ 1000 nM | < 300 nM | < 300 nM | < 300 nM |
| Cn1c2nc(Cc3cc[nH]n3)sc2c2cnn(Cc3ncsc3C(N)=O)c(=O)c21 | ≤ 1000 nM | < 300 nM | < 300 nM | < 300 nM |
| Cn1c2nc(Cc3cc[nH]n3)sc2c2cnn(Cc3c[nH]nn3)c(=O)c21 | ≤ 1000 nM | < 300 nM | < 300 nM | < 300 nM |
| Cc1cn(C)nc1Cn1ncc2c3sc(Cc4cc[nH]n4)nc3n(C)c2c1=O | ≤ 1000 nM | < 300 nM | < 300 nM | < 300 nM |
| Cn1c2nc(Cc3cc[nH]n3)sc2c2cnn(Cc3n[nH]c(=O)[nH]3)c(=O)c21 | > 1000 nM | > 800 nM | > 800 nM | > 800 nM |
| Cn1c2nc(Cc3n[nH]cc3F)sc2c2cnn(Cc3c[nH]nn3)c(=O)c21 | ≤ 1000 nM | < 300 nM | < 300 nM | < 300 nM |
| COc1ncccc1Cn1ncc2c3sc(Cc4n[nH]cc4F)nc3n(C)c2c1=O | ≤ 1000 nM | < 300 nM | < 300 nM | < 300 nM |

Next, values leading:

| AC50 [1] | AC50 [2] | AC50 [3] | AC50 [4] | SMILES |
| --- | --- | --- | --- | --- |
| > 1000 nM | > 800 nM | > 800 nM | > 800 nM | Cn1c2nc(Cc3c[nH]cn3)sc2c2cnn(Cc3ncsc3C(F)(F)F)c(=O)c21 |
| ≤ 1000 nM | < 300 nM | < 300 nM | < 300 nM | COc1ccc(Cn2ncc3c4sc(Cc5cc[nH]n5)nc4n(C)c3c2=O)nc1N |
| ≤ 1000 nM | < 300 nM | < 300 nM | < 300 nM | Cn1c2nc(Cc3cc[nH]n3)sc2c2cnn(Cc3c[nH]c(N)n3)c(=O)c21 |
| ≤ 1000 nM | < 300 nM | < 300 nM | < 300 nM | Cc1cccc(Cn2ncc3c4sc(Cc5cc[nH]n5)nc4n(C)c3c2=O)n1 |
| ≤ 1000 nM | < 300 nM | < 300 nM | < 300 nM | Cn1c2nc(Cc3cc[nH]n3)sc2c2cnn(Cc3cccc(NO)n3)c(=O)c21 |
| > 1000 nM | > 800 nM | > 800 nM | > 800 nM | Cn1cc(C(=O)O)c(Cn2ncc3c4sc(Cc5cc[nH]n5)nc4n(C)c3c2=O)n1 |
| ≤ 1000 nM | < 300 nM | < 300 nM | < 300 nM | Cn1c2nc(Cc3cc[nH]n3)sc2c2cnn(Cc3ccn[nH]3)c(=O)c21 |
| ≤ 1000 nM | < 300 nM | < 300 nM | < 300 nM | Cn1c2nc(Cc3cc[nH]n3)sc2c2cnn(Cc3csc(F)n3)c(=O)c21 |
| ≤ 1000 nM | < 300 nM | < 300 nM | < 300 nM | Cn1c2nc(Cc3c[nH]nn3)sc2c2cnn(Cc3csc(N)n3)c(=O)c21 |
| ≤ 1000 nM | < 300 nM | < 300 nM | < 300 nM | COc1scnc1Cn1ncc2c3sc(Cc4cc[nH]n4)nc3n(C)c2c1=O |
| ≤ 1000 nM | < 300 nM | < 300 nM | < 300 nM | Cn1c2nc(Cc3ncsc3F)sc2c2cnn(Cc3cc[nH]n3)c(=O)c21 |
